The results in this text go back to US20070149580A1, “USE OF PEROXISOME PROLIFERATOR ACTIVATED RECEPTOR DELTA AGONISTS FOR THE TREATMENT OF MS AND OTHER DEMYELINATING DISEASES” (AVENTIS PHARMACEUTICALS INC., priority 2004, published 2007).

The structures appear in SMILES notation.

The experiment concerns the target T1, Mouse PPAR delta (Mus musculus, UniProt P35396).
T1 construct: expressed in transfected cells
T1 sequence (P35396 1-440): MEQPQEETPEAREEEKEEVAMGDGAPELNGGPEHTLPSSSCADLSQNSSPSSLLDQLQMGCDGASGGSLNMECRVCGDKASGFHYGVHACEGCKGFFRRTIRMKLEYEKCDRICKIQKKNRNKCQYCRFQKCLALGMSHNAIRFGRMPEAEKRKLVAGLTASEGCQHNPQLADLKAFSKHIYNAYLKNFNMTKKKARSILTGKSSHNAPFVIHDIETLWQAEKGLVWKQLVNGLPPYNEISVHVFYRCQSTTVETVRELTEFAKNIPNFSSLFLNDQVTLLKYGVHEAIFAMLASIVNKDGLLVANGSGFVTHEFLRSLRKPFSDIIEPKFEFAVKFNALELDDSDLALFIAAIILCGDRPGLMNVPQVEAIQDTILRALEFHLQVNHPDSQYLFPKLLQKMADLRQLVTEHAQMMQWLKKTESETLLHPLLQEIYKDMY
The experiment can be described thus: Mouse PPAR delta GAL4/luciferase reporter assay. The experiment is classed as cell-based. Here is the method: The optimum nuclear receptor selectivity profile is determined by the GAL4/luciferase reporter assays.

In turn, `CCCc1c(OCCCOc2ccc(OCC(=O)O)cc2)ccc(C(C)=O)c1O` [Compound 2] came in with a concentration for a half-maximal effect (EC50) of 1 µM.

As usually defined, the EC50 is the midpoint of the concentration-response curve. Read a low EC50 as greater potency.
